Assay results: US20250223281A1, “ANTIDIABETIC COMPOUNDS AND COMPOSITIONS” (REZUBIO PHARMACEUTICALS CO., LTD, priority 2022, published 2025)

Molecular target: T1, GPR40 (Homo sapiens, UniProt O14842)
T1 construct: expressed in transfected cells; host or cells: HEK293 cells stably expressing GPR40 (Hygromycin selection)
Assay: IP1 accumulation assay in HEK293 cells stably expressing GPR40
Assay type: cell-based
Outline: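 HEK293 cells stably expressing human GPR40 were incubated with compounds (10-point, 3-fold dilution series) for 2 h at 37 °C, then IP1 was detected by HTRF (665/615 nm ratio). Effect was normalised to DMSO blank and AMG-1638 as 100%, and EC50 was derived from dose curves.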

[1] = IP1 accumulation, HEK293 cells stably expressing GPR40, 2 hours at 37° C., % effect relative to AMG-1638, table of Biological Example 1
[2] = Table A-8 (additional examples), obtained by methods of Biological Example 1
[3] = Tables A-1a to A-7b (structure-property relationship), obtained by methods of Biological Example 1

T1 sequence (O14842 whole entry): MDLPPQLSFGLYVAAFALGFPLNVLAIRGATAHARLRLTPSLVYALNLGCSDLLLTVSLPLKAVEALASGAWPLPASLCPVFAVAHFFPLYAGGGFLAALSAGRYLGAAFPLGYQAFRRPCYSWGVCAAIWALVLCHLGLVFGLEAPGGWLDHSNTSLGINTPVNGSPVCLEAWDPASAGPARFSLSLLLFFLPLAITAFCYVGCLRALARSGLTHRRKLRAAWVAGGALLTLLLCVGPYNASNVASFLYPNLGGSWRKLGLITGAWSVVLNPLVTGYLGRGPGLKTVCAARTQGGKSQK

| SMILES | EC50 [1] [nM] | EC50 [2] [nM] | EC50 [3] [nM] |
| --- | --- | --- | --- |
| COc1ccc(C(=O)N(CC(C)(C)CCn2cc(COCCOCCOCCOCCOCC(=O)NCC[N+](C)(CCC(=O)NCCN)CCC(=O)NCCN)nn2)c2cccc(C)n2)c(N2CCC(COc3cc([C@@H](CC(=O)O)C4CC4)ccn3)CC2)c1 [Example 164] | 1330 | 1330 |  |
| COc1ccc(F)c(-c2ccc(COc3cccc([C@@H](CC(=O)O)C4CC4)c3)cc2CC(C)(C)Cn2cc(COCCOCCOCC(=O)NCCN(CCC(=O)NCCN)CCC(=O)NCCN)nn2)c1 [Example 165] | > 10000 | > 10000 |  |
| COc1ccc(F)c(-c2ccc(COc3cccc([C@@H](CC(=O)O)C4CC4)c3)cc2CC(C)(C)Cn2cc(COCCOCCOCCOCC(=O)NCCN(CCC(=O)NCCN)CCC(=O)NCCN)nn2)c1 [Example 166] | > 10000 | > 10000 |  |
| COc1ccc(F)c(-c2ccc(COc3cccc([C@@H](CC(=O)O)C4CC4)c3)cc2CC(C)(C)Cn2cc(COCCOCCOCCOCCOCC(=O)NCCN(CCC(=O)NCCN)CCC(=O)NCCN)nn2)c1 [Example 167] | > 10000 | > 10000 |  |
| COc1ccc(F)c(-c2ccc(COc3cccc([C@@H](CC(=O)O)C4CC4)c3)cc2CC(C)(C)Cn2cc(COCCOCCOCC(=O)NCC[N+](C)(CCC(=O)NCCN)CCC(=O)NCCN)nn2)c1 [Example 168] | > 10000 | > 10000 |  |
| COc1ccc(F)c(-c2ccc(COc3cccc([C@@H](CC(=O)O)C4CC4)c3)cc2CC(C)(C)Cn2cc(COCCOCCOCCOCC(=O)NCC[N+](C)(CCC(=O)NCCN)CCC(=O)NCCN)nn2)c1 [Example 169] | > 10000 | > 10000 |  |
| COc1ccc(F)c(-c2ccc(COc3cccc([C@@H](CC(=O)O)C4CC4)c3)cc2CC(C)(C)Cn2cc(COCCOCCOCCOCCOCC(=O)NCC[N+](C)(CCC(=O)NCCN)CCC(=O)NCCN)nn2)c1 [Example 170] | 200 | > 200 |  |
| C[C@H](C(=O)O)[C@H](c1ccc2c(c1)O[C@@H](C1CCN(Cc3cc(-n4cc(COCCOCCOCC(=O)NCCN(CCC(=O)NCCN)CCC(=O)NCCN)nn4)ccc3OC(F)(F)F)CC1)CC2)C1CC1 [Example 171] | > 10000 | > 10000 |  |
| C[C@H](C(=O)O)[C@H](c1ccc2c(c1)O[C@@H](C1CCN(Cc3cc(-n4cc(COCCOCCOCCOCC(=O)NCCN(CCC(=O)NCCN)CCC(=O)NCCN)nn4)ccc3OC(F)(F)F)CC1)CC2)C1CC1 [Example 172] | 5240 | 5240 |  |
| C[C@H](C(=O)O)[C@H](c1ccc2c(c1)O[C@@H](C1CCN(Cc3cc(-n4cc(COCCOCCOCCOCCOCC(=O)NCCN(CCC(=O)NCCN)CCC(=O)NCCN)nn4)ccc3OC(F)(F)F)CC1)CC2)C1CC1 [Example 173] | > 10000 | > 10000 |  |
| C[C@H](C(=O)O)[C@H](c1ccc2c(c1)O[C@@H](C1CCN(Cc3cc(-n4cc(COCCOCCOCC(=O)NCC[N+](C)(CCC(=O)NCCN)CCC(=O)NCCN)nn4)ccc3OC(F)(F)F)CC1)CC2)C1CC1 [Example 174] | > 10000 | > 10000 |  |
| C[C@H](C(=O)O)[C@H](c1ccc2c(c1)O[C@@H](C1CCN(Cc3cc(-n4cc(COCCOCCOCCOCC(=O)NCC[N+](C)(CCC(=O)NCCN)CCC(=O)NCCN)nn4)ccc3OC(F)(F)F)CC1)CC2)C1CC1 [Example 175] | > 10000 | > 10000 |  |
| C[C@H](C(=O)O)[C@H](c1ccc2c(c1)O[C@@H](C1CCN(Cc3cc(-n4cc(COCCOCCOCCOCCOCC(=O)NCC[N+](C)(CCC(=O)NCCN)CCC(=O)NCCN)nn4)ccc3OC(F)(F)F)CC1)CC2)C1CC1 [Example 176] | > 10000 | > 10000 |  |
| COc1ccc(C(=O)N(CC(C)(C)CCn2cc(CCCCCCCCCCCCCCC(=O)NCC[N+](C)(CCC(=O)NCCN)CCC(=O)NCCN)nn2)c2cccc(C)n2)c(N2CCC(c3cc4ccc([C@@H](CC(=O)O)C5CC5)cc4o3)CC2)c1 [Example 177] | 0.08 |  |  |
| COc1ccc(C(=O)N(CC(C)(C)CCn2cc(COCCOCCOCCOCCOCC(=O)NCC[N+](C)(CCC(=O)NCCN)CCC(=O)NCCN)nn2)c2cccc(C)n2)c(N2CCC(c3cc4ccc([C@@H](CC(=O)O)C5CC5)cc4o3)CC2)c1 [Example 178] | 2030 |  |  |
| COc1ccc(F)c(-n2nnc(COc3cccc([C@@H](CC(=O)O)C4CC4)c3)c2CC(C)(C)Cn2cc(CCCCCCCCCCCCCCCC(=O)NCCN(CCC(=O)NCCN)CCC(=O)NCCN)nn2)c1 [Example 179] | 50 |  |  |
| COc1ccc(F)c(-n2nnc(COc3cccc([C@@H](CC(=O)O)C4CC4)c3)c2CC(C)(C)Cn2cc(COCCOCCOCCOCCOCC(=O)NCCN(CCC(=O)NCCN)CCC(=O)NCCN)nn2)c1 [Example 180] | > 10000 |  |  |
| COc1ccc(F)c(-n2nnc(COc3cccc([C@@H](CC(=O)O)C4CC4)c3)c2CC(C)(C)Cn2cc(CCCCCCCCCCCCCCCC(=O)NCC[N+](C)(CCC(=O)NCCN)CCC(=O)NCCN)nn2)c1 [Example 181] | 16.1 |  |  |

| SMILES | EC50 [1] [nM] | EC50 [2] [nM] | EC50 [3] [nM] |
| --- | --- | --- | --- |
| COc1ccc(F)c(-n2nnc(COc3cccc([C@@H](CC(=O)O)C4CC4)c3)c2CC(C)(C)Cn2cc(COCCOCCOCCOCCOCC(=O)NCC[N+](C)(CCC(=O)NCCN)CCC(=O)NCCN)nn2)c1 [Example 182] | > 10000 |  |  |
| C[C@H](C(=O)O)[C@H](c1ccc2c(c1)O[C@@H](C1CCN(Cc3cc(-n4cc(CCCCCCCCCCCCCCCC(=O)NCCN(CCC(=O)NCCN)CCC(=O)NCCN)nn4)ccc3OC(F)(F)F)CC1)CC2)C1CC1 [Example 185] | 0.05 | 0.05 | 0.05 |
| C[C@H](C(=O)O)[C@H](c1ccc2c(c1)O[C@@H](C1CCN(Cc3cc(-n4cc(CCCCCCCCCCCCCCCC(=O)NCC[N+](C)(CCC(=O)NCCN)CCC(=O)NCCN)nn4)ccc3OC(F)(F)F)CC1)CC2)C1CC1 [Example 186] | 0.03 | 0.05 | 0.05 |
| COc1ccc(F)c(-c2ccc(COc3cccc([C@@H](CC(=O)O)C4CC4)c3)cc2CC(C)(C)Cn2cc(CCCCCCCCCCCCCCCC(=O)NCCN(CCC(=O)NCCN)CCC(=O)NCCN)nn2)c1 [Example 187] | 1.34 | 1.34 | 1.34 |
| COc1ccc(F)c(-c2ccc(COc3cccc([C@@H](CC(=O)O)C4CC4)c3)cc2CC(C)(C)Cn2cc(CCCCCCCCCCCCCCCC(=O)NCC[N+](C)(CCC(=O)NCCN)CCC(=O)NCCN)nn2)c1 [Example 188] | 1.53 | 1.53 | 1.53 |
| COc1ccc(C(=O)N(CC(C)(C)CCCCCCn2cc(CCCCCCCCCCCCCC(=O)NCCN(CCC(=O)NCCN)CCC(=O)NCCN)nn2)c2cccc(C)n2)c(N2CCC(COc3cc([C@@H](CC(=O)O)C4CC4)ccn3)CC2)c1 [Example 189] | 0.05 |  | 0.05 |
| COc1ccc(C(=O)N(CC(C)(C)CCCCCCn2cc(CCCCCCCCCCCCCC(=O)NCC[N+](C)(CCC(=O)NCCN)CCC(=O)NCCN)nn2)c2cccc(C)n2)c(N2CCC(COc3cc([C@@H](CC(=O)O)C4CC4)ccn3)CC2)c1 [Example 190] | 0.05 |  | 0.05 |
| COc1ccc(F)c(-c2ccc(COc3cccc([C@@H](CC(=O)O)C4CC4)c3)cc2CC(C)(C)Cn2cc(CCCCCCCCCC(=O)NCCN(CCC(=O)NCCN)CCC(=O)NCCN)nn2)c1 [Example 191] | 204 | 209 | 204 |
| COc1ccc(F)c(-c2ccc(COc3cccc([C@@H](CC(=O)O)C4CC4)c3)cc2CC(C)(C)Cn2cc(CCCCCCCCCC(=O)NCC[N+](C)(CCC(=O)NCCN)CCC(=O)NCCN)nn2)c1 [Example 192] | 250 | 251 | 250 |
| C[C@H](C(=O)O)[C@H](c1ccc2c(c1)O[C@@H](C1CCN(Cc3cc(-n4cc(CCCCCCCCCC(=O)NCCN(CCC(=O)NCCN)CCC(=O)NCCN)nn4)ccc3OC(F)(F)F)CC1)CC2)C1CC1 [Example 193] | 413 | 413 | 413 |
| C[C@H](C(=O)O)[C@H](c1ccc2c(c1)O[C@@H](C1CCN(Cc3cc(-n4cc(CCCCCCCCCC(=O)NCC[N+](C)(CCC(=O)NCCN)CCC(=O)NCCN)nn4)ccc3OC(F)(F)F)CC1)CC2)C1CC1 [Example 194] | 114 | 94 | 114 |
| COc1ccc(C(=O)N(CC(C)(C)CCn2cc(CCCCC(=O)NCCN(CCC(=O)NCCN)CCC(=O)NCCN)nn2)c2cccc(C)n2)c(N2CCC(COc3cc([C@@H](CC(=O)O)C4CC4)ccn3)CC2)c1 [Example 195] | > 10000 |  |  |
| COc1ccc(C(=O)N(CC(C)(C)CCn2cc(CCCCCCC(=O)NCCN(CCC(=O)NCCN)CCC(=O)NCCN)nn2)c2cccc(C)n2)c(N2CCC(COc3cc([C@@H](CC(=O)O)C4CC4)ccn3)CC2)c1 [Example 196] | 9870 |  | 9870 |
| COc1ccc(C(=O)N(CC(C)(C)CCn2cc(CCCCCCCCCC(=O)NCCN(CCC(=O)NCCN)CCC(=O)NCCN)nn2)c2cccc(C)n2)c(N2CCC(COc3cc([C@@H](CC(=O)O)C4CC4)ccn3)CC2)c1 [Example 197] | 84.3 | 84 | 84.3 |
| COc1ccc(C(=O)N(CC(C)(C)CCn2cc(CCCCCCCCCCCCCCCC(=O)NCCN(CCC(=O)NCCN)CCC(=O)NCCN)nn2)c2cccc(C)n2)c(N2CCC(COc3cc([C@@H](CC(=O)O)C4CC4)ccn3)CC2)c1 [Example 198] | 0.17 | 0.17 | 0.17 |
| COc1ccc(C(=O)N(CC(C)(C)CCn2cc(CCCCC(=O)NCC[N+](C)(CCC(=O)NCCN)CCC(=O)NCCN)nn2)c2cccc(C)n2)c(N2CCC(COc3cc([C@@H](CC(=O)O)C4CC4)ccn3)CC2)c1 [Example 199] | > 10000 |  | > 10000 |
| COc1ccc(C(=O)N(CC(C)(C)CCn2cc(CCCCCCC(=O)NCC[N+](C)(CCC(=O)NCCN)CCC(=O)NCCN)nn2)c2cccc(C)n2)c(N2CCC(COc3cc([C@@H](CC(=O)O)C4CC4)ccn3)CC2)c1 [Example 200] | > 10000 |  | > 10000 |
